Results reported in EP2020405A1, “Substituted aryl or heteroarylpiperidine derivatives as melanocortin-4 receptor modulators” (Santhera Pharmaceuticals (Schweiz) AG, priority 2007, dated 2009).

How the values were obtained:
hMC-4R [1] = target: T1, hMC-4R (Homo sapiens, UniProt P32245); assay: Functional assay (membrane based cAMP fluorescence polarization, agonistic activity); format: biochemical; parameters: concentration or dose not given beside the values; details: cAMP produced compared to stimulation with NDP-alpha-MSH
T1 construct: expressed in transfected cells; host or cells: HEK293
T1 sequence (P32245 whole entry): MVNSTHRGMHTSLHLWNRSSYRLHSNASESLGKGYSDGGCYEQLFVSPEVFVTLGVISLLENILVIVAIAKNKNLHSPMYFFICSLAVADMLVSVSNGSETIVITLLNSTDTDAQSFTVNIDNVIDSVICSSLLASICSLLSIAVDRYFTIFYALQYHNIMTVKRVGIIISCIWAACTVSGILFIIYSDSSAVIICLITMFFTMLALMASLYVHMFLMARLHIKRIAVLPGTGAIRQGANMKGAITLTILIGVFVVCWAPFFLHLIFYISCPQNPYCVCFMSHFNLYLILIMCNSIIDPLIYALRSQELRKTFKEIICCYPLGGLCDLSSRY
Experimental: Agonistic activity of human melanocortin receptors is determined in a homogeneous membrane based assay.
Membrane preparations from HEK293 cells expressing the human melanocortin receptors are added. After a short preincubation period, an appropriate amount of ATP, GTP and the cAMP antibody is added and the plate is further incubated before the fluorescence labeled cAMP conjugate is dispensed. The plate is incubated for 2 h at 4°C before it is read on a fluorescence polarization microplate reader. The amount of cAMP produced as a response to a test compound is compared to the production of cAMP resulting from stimulation with NDP-alpha-MSH.

hMC-4R [2] = target: T1, hMC-4R; assay: Membrane binding assay (fluorescence polarization, competition with fluorescence labeled NDP-alpha-MSH); details: HEK293 cell membrane preparations expressing human melanocortin receptors; 5 h at room temperature

`CCC(COc1cc(Cl)ccc1C1CCN(C(=O)[C@@H](Cc2ccc(Cl)cc2Cl)N2CCCC2)CC1)N1CCCC1` (stereo partly drawn) [Example 3] was tested, and the “% activation functional assay” value (hMC-4R [1]) was 0% and the IC50 (hMC-4R [2]) was 2.1 nM.
For `CCC(CN1CCCC1)Oc1cc(Cl)ccc1C1CCN(C(=O)[C@@H](Cc2ccc(Cl)cc2Cl)N2CCCC2)CC1` (stereo partly drawn) [Example 4], the “% activation functional assay” value (hMC-4R [1]) was 0% and the IC50 (hMC-4R [2]) was 2.4 nM.
For `O=C(C(Cc1ccc(Cl)cc1Cl)N1CCCCC1)N1CCC(c2ccc(Cl)cc2OCCN2CCCC2)CC1` (stereo not drawn) [Example 10], the “% activation functional assay” value (hMC-4R [1]) was 14% and the IC50 (hMC-4R [2]) was 62 nM.
With `O=C(C(Cc1ccc(Cl)cc1Cl)N1CCCCC1)N1CCC(c2cc(F)ccc2CCN2CCCC2)CC1` (stereo not drawn) [Example 15] the “% activation functional assay” value (hMC-4R [1]) was 0% and the IC50 (hMC-4R [2]) was 180 nM.
`CCC(Cc1cc(Cl)ccc1C1CCN(C(=O)C(Cc2ccc(Cl)cc2Cl)n2cncn2)CC1)CN1CCCC1` (stereo not drawn) [Example 22] was tested, and the “% activation functional assay” value (hMC-4R [1]) was 0% and the IC50 (hMC-4R [2]) was 17 nM.
For `O=C(C(Cc1ccc(Cl)cc1Cl)n1cncn1)N1CCC(c2ccc(Cl)cc2OCCN2CCCC2)CC1` (stereo not drawn) [Example 23], the “% activation functional assay” value (hMC-4R [1]) was 0% and the IC50 (hMC-4R [2]) was 7.7 nM.
For `O=C(C(Cc1ccc(Cl)cc1Cl)N1CCOCC1)N1CCC(c2ccc(Cl)cc2OCCN2CCCC2)CC1` (stereo not drawn) [Example 25], the “% activation functional assay” value (hMC-4R [1]) was 0% and the IC50 (hMC-4R [2]) was 100 nM.
`O=C(C(Cc1ccc(Cl)cc1Cl)Nc1cccnc1)N1CCC(c2ccc(Cl)cc2OCCN2CCCC2)CC1` (stereo not drawn) [Example 27] was tested, and the “% activation functional assay” value (hMC-4R [1]) was 0% and the IC50 (hMC-4R [2]) was 5.9 nM.
In the case of `Cc1ccn(C(Cc2ccc(Cl)cc2Cl)C(=O)N2CCC(c3ccc(Cl)cc3OCCN3CCCC3)CC2)n1` (stereo not drawn) [Example 34], the “% activation functional assay” value (hMC-4R [1]) is reported as 0% and the IC50 (hMC-4R [2]) is reported as 220 nM.
